Measurements from ChEMBL document CHEMBL1130691, “Acceptor substrate-based selective inhibition of galactosyltransferases” (Bioorg Med Chem Lett, 1998).

Columns and labels:
[1] = target: T1, Beta-1,4-galactosyltransferase 1 (Bos taurus, UniProt P08037); assay: Compound was tested for the inhibition recombinant bovine beta -1,4 -galactosyl transferase (beta-1,4-GalT)
T1 sequence (P08037 whole entry): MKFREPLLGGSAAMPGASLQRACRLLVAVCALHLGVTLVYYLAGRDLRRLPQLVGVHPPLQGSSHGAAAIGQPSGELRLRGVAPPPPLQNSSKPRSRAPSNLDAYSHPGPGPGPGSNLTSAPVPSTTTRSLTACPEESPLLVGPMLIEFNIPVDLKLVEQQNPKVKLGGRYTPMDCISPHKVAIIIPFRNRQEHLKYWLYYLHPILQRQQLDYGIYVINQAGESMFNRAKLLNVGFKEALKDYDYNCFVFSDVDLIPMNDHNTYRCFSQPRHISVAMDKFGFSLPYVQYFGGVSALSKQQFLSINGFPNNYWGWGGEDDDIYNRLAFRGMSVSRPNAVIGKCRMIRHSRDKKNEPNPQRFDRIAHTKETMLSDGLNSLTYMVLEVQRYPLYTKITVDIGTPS

[2] = target: T2, N-acetyllactosaminide alpha-1,3-galactosyltransferase (Sus scrofa, UniProt P50127); assay: Compound was tested for the inhibition porcine alpha -1,3 -galactosyl transferase (alpha-1,3-GalT); No inhibition
T2 sequence (P50127 whole entry): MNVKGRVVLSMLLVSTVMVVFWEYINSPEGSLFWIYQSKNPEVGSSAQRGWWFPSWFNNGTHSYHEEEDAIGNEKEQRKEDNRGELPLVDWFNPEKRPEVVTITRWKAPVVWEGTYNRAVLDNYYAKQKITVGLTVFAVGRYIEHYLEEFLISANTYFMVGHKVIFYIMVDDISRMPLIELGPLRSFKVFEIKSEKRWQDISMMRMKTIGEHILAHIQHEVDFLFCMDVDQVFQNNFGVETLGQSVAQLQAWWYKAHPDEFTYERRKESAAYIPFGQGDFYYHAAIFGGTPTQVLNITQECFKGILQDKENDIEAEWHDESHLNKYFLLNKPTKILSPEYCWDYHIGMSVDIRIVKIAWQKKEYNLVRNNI

[3] = target: T1, Beta-1,4-galactosyltransferase 1; assay: Compound was tested for the inhibition recombinant bovine beta -1,4 -galactosyl transferase (beta-1,4-GalT); No inhibition
[4] = target: T2, N-acetyllactosaminide alpha-1,3-galactosyltransferase; assay: Compound was tested for the inhibition porcine alpha -1,3 -galactosyl transferase (alpha-1,3-GalT)
[5] = target: T2, N-acetyllactosaminide alpha-1,3-galactosyltransferase; assay: Compound was tested for the inhibition porcine alpha -1,3 -galactosyl transferase (alpha-1,3-GalT) at 0.2 mM concentration

| SMILES | Ki [1] [µM] | Ki [2] | Ki [3] | further results |
| --- | --- | --- | --- | --- |
| CC(=O)NC1C(Oc2ccccc2)OC(CO)C(O)C1O (stereo unspecified) | – | – | Not Active | – |
| COC(=O)CCCCCOC1OC(CO)C(O)C(O)C1NC(C)=O (stereo unspecified) | – | – | Not Active | – |
| CC(=O)NC1C(Oc2cccc3ccccc23)OC(CO)C(O)C1O (stereo unspecified) | 22 | Not Active | – | – |
| CC(=O)NC1C(OCc2ccccc2)OC(CO)C(N)C1O (stereo unspecified) | 850 | – | – | – |
| CO[C@@H]1O[C@@H](CO)[C@H](O)[C@H](O[C@@H]2O[C@@H](CS)[C@@H](O)[C@H](O)[C@@H]2NC(C)=O)[C@@H]1O | 1000 | – | – | – |
| CC(=O)N[C@@H]1[C@H](Oc2ccc3cc(Br)ccc3c2)O[C@@H](CO)[C@@H](O[C@@H]2O[C@@H](CO)[C@H](O)[C@H](O)[C@@H]2O)[C@@H]1O | – | – | Not Active | Ki [4]: 9.2 µM |
| COC1OC(CO)C(OC2OC(CO)C(O)C(N)C2O)C(O)C1NC(C)=O (stereo unspecified) | – | – | – | Ki [5]: 104 µM |

Second part, led by results:

| Ki [1] [µM] | Ki [2] | Ki [3] | SMILES | further results |
| --- | --- | --- | --- | --- |
| 7.6 | Not Active | – | CC(=O)NC1C(Oc2ccc3cc(Br)ccc3c2)OC(CO)C(O)C1O (stereo unspecified) | – |
| 9.5 | Not Active | – | CC(=O)NC1C(Oc2ccc3ccccc3c2)OC(CO)C(O)C1O (stereo unspecified) | – |
| – | – | Not Active | OC[C@@H]1O[C@@H](Oc2ccc3cc(Br)ccc3c2)[C@@H](O)[C@@H](O)[C@H]1O | – |
| 3.5 | Not Active | – | COc1ccc2cc(OC3OC(CO)C(O)C(O)C3NC(C)=O)ccc2c1 (stereo unspecified) | – |
